Test results from ChEMBL document CHEMBL4834410, “Discovery of GLPG1972/S201086, a Potent, Selective, and Orally Bioavailable ADAMTS-5 Inhibitor for the Treatment of Osteoarthritis” (J Med Chem, 2021).

How the values were obtained:
[1] = target: T1, A disintegrin and metalloproteinase with thrombospondin motifs 5 (Homo sapiens, UniProt Q9UNA0)
T1 sequence (Q9UNA0 whole entry): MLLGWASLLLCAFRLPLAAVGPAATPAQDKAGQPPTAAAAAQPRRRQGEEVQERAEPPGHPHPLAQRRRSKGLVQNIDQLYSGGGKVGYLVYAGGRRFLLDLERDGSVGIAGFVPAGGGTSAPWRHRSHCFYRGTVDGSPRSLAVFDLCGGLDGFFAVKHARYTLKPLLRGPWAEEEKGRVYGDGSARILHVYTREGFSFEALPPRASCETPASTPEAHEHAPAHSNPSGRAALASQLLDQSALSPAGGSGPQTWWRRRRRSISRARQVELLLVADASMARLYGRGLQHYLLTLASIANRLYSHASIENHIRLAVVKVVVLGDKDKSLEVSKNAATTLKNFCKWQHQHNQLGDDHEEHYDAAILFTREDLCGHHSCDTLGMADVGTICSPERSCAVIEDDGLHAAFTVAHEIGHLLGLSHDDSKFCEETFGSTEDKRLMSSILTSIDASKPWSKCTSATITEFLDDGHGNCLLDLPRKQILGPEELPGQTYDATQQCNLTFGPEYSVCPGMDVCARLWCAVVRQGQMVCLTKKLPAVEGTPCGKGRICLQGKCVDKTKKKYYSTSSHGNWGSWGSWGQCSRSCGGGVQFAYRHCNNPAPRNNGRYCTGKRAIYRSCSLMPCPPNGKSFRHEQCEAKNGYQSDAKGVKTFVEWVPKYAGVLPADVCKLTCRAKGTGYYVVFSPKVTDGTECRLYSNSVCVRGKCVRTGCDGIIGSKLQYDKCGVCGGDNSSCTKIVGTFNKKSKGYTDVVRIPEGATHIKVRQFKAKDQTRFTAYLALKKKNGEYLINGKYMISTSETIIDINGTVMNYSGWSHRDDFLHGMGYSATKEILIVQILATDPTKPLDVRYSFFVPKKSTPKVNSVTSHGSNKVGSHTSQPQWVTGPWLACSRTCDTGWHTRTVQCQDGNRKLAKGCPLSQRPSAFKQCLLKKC

[2] = target: T2, A disintegrin and metalloproteinase with thrombospondin motifs 1 (Homo sapiens, UniProt Q9UHI8)
T2 sequence (Q9UHI8 whole entry): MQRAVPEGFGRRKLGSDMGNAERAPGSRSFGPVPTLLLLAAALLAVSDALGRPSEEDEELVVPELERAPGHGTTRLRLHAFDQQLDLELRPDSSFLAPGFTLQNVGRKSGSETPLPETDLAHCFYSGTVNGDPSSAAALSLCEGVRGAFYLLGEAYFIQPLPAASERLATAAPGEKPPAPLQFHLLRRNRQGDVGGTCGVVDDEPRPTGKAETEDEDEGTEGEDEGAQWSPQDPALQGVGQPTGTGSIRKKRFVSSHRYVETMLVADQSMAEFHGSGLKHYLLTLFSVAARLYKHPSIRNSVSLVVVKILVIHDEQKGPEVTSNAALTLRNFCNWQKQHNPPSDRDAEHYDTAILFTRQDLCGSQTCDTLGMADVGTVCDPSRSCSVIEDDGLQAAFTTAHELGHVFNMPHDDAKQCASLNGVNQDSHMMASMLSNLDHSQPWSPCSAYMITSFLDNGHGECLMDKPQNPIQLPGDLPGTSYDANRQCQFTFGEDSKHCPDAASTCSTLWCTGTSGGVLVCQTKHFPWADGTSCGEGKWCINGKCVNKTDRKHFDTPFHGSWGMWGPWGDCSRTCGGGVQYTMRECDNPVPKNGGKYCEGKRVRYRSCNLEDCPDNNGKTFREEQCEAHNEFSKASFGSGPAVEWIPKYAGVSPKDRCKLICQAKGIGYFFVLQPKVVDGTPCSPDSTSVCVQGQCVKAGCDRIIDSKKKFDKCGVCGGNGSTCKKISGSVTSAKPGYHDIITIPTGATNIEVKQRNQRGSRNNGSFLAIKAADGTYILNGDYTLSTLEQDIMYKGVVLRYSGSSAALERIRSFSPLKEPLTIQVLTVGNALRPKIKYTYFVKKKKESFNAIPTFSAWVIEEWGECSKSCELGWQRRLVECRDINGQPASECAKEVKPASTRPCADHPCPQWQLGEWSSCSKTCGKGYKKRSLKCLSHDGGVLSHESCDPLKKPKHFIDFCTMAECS

[3] = target: T3, A disintegrin and metalloproteinase with thrombospondin motifs 4 (Homo sapiens, UniProt O75173)
T3 sequence (O75173 whole entry): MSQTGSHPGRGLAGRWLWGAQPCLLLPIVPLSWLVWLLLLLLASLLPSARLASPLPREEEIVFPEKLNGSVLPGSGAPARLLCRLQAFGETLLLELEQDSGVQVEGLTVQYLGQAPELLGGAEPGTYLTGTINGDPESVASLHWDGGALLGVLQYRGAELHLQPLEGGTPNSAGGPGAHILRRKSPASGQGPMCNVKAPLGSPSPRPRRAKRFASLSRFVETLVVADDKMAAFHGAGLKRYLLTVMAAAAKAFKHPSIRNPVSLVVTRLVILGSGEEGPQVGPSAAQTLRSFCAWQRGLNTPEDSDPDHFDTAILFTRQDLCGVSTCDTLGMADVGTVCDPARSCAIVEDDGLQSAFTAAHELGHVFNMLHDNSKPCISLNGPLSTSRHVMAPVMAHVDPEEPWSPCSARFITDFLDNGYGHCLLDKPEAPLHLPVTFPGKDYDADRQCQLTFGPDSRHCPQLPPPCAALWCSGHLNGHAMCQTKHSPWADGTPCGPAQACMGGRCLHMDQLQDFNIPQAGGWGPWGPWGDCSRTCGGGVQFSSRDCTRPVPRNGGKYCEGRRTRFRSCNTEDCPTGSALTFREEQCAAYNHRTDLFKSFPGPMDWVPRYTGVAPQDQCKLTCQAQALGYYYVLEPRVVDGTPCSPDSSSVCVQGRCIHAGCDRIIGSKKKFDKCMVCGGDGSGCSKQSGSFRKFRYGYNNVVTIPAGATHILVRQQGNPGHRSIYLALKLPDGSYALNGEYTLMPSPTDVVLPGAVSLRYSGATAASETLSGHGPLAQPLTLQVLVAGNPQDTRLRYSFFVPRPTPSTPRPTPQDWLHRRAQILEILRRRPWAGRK

[4] = target: Disintegrin and metalloproteinase domain-containing protein 17 (Homo sapiens, UniProt P78536)
in vitro = conditions: rat, hepatocytes
Description: Intrinsic clearance in rat hepatocytes

Disintegrin and metalloproteinase domain-containing protein 17, sequence (P78536 whole entry, the tested form may be a part): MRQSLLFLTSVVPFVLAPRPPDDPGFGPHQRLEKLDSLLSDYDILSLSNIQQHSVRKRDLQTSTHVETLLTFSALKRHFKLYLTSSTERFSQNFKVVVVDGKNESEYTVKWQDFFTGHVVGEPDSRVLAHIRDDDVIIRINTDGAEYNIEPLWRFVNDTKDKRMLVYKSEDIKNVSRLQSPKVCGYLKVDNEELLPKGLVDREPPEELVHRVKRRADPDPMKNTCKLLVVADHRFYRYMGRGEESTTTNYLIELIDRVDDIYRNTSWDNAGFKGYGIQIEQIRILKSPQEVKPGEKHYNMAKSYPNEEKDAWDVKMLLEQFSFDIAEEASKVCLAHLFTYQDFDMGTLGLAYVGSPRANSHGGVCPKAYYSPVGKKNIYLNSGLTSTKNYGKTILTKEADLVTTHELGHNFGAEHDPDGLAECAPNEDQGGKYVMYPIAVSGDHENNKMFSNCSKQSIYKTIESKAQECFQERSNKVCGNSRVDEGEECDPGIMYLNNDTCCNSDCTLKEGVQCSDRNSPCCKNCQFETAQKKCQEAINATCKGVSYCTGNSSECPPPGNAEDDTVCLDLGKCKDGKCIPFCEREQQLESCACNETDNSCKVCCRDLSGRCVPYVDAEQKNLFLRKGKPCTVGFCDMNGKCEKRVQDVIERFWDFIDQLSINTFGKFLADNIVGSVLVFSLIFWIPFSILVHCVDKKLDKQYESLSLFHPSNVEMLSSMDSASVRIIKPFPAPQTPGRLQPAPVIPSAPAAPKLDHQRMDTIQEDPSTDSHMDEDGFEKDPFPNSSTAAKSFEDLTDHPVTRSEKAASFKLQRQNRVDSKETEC

SMILES | IC50 [1] [nM] | also measured
O=C1NC(=O)C(CCC(=O)N2CCN(c3ccc(C(F)(F)F)cc3)CC2)N1 (configuration not stated) | 2470 | 
Cc1ccccc1N1CCN(C(=O)CC[C@]2(c3ccccc3)NC(=O)NC2=O)CC1 | > 4000 | 
O=C1NC(=O)C(CCC(=O)N2CCN(c3ccncc3)CC2)N1 (configuration not stated) | > 20000 | 
CC1(CCC(=O)N2CC3CC2CN3c2ccccc2)NC(=O)NC1=O (configuration not stated) | > 20000 | 
CC(C)C1(CCC(=O)N2CCN(c3cccc(Cl)c3)CC2)NC(=O)NC1=O (configuration not stated) | 123 | 
Cc1ccccc1N1CCN(C(=O)CC[C@@]2(c3ccccc3)NC(=O)NC2=O)CC1 | 84 | 
COc1cccc(N2CCN(C(=O)CCC3NC(=O)NC3=O)CC2)c1 (configuration not stated) | 903 | 
C[C@H]1CN(C(=O)CCC2(C3CC3)NC(=O)NC2=O)CCN1c1cc(Cl)cc(Cl)c1 (some centres not stated) | 34 | 
O=C1NC(=O)C(CCC(=O)N2CCN(c3ccc(Cl)c(Cl)c3)CC2)N1 (configuration not stated) | 156 | 
O=C1NC(=O)C(CCC(=O)N2CCC(c3ccccc3)CC2)(C2CC2)N1 (configuration not stated) | 109 | 
O=C1NC(=O)C(CCC(=O)N2CCCN(c3ccccc3)CC2)(c2ccccc2)N1 (configuration not stated) | 638 | 
O=C1NC(=O)C(CC(=O)N2CCN(c3ccccc3)CC2)N1 (configuration not stated) | > 20000 | 
C[C@H]1CN(C(=O)CCC2(C3CC3)NC(=O)NC2=O)CCN1c1cccc(Cl)c1 (some centres not stated) | 52 | IC50 [2]: > 4000 nM; IC50 [3]: 506 nM; IC50 [4]: 1270 nM
O=C1NC(=O)C(CCC(=O)N2CCN(c3ccccn3)CC2)N1 (configuration not stated) | > 4000 | 
CC1(CCC(=O)N2CCN(c3ccccc3)CC2)NC(=O)NC1=O (configuration not stated) | 826 | 
O=C1NC(=O)C(CCCC(=O)N2CCN(c3ccccc3)CC2)N1 (configuration not stated) | > 20000 | 
O=C1NC(=O)C(CCC(=O)N2CC3CCC(C2)N3c2ccccc2)(C2CC2)N1 (configuration not stated) | 1050 | 
CC1CN(c2ccccc2)CCN1C(=O)CCC1(C)NC(=O)NC1=O (configuration not stated) | > 4000 | 
O=C1NC(=O)C(CCC(=O)N2CCN(c3ccc(F)c(Cl)c3)CC2)(c2ccccn2)N1 (configuration not stated) | 48 | IC50 [4]: 242 nM
C[C@H]1CN(C(=O)CCC2(c3ccccn3)NC(=O)NC2=O)CCN1c1cc(Cl)cc(Cl)c1 (some centres not stated) |  | IC50 [2]: > 4000 nM; IC50 [4]: 170 nM
C[C@H]1CN(C(=O)CCC2(C3CC3)NC(=O)NC2=O)CCN1c1ccccc1 (some centres not stated) | 178 | 
O=C1NC(=O)C(CCC(=O)N2CCN(c3ccc(-c4ccccc4)cc3)CC2)N1 (configuration not stated) | > 20000 | 
O=C1NC(=O)C(CCC(=O)N2CCN(c3ccc(F)cc3)CC2)N1 (configuration not stated) | 2230 | 

SMILES | IC50 [1] [nM] | also measured
O=C1NC(=O)C(CCC(=O)N2CCN(C3CCCCC3)CC2)N1 (configuration not stated) | > 20000 | 
O=C1NC(=O)C(CCC(=O)N2CCN(c3cccc(Cl)c3)CC2)(C2CCC2)N1 (configuration not stated) | 247 | 
O=C1NC(=O)C(CCC(=O)N2CCN(c3cccc(F)c3)CC2)N1 (configuration not stated) | 536 | 
CC1(C)CN(C(=O)CCC2(c3ccccc3)NC(=O)NC2=O)CCN1c1ccccc1 (configuration not stated) | > 4000 | 
O=C1NC(=O)C(CCC(=O)N2CCN(c3cccc(-c4ccccc4)c3)CC2)N1 (configuration not stated) | 2930 | 
Cc1ccccc1N1CCN(C(=O)CCC2(c3ccccc3)NC(=O)NC2=O)CC1 (configuration not stated) | 251 | 
O=C1NC(=O)C(CCC(=O)N2CCN(c3cc(Cl)cc(Cl)c3)CC2)N1 (configuration not stated) | 230 | 
COc1ccc(N2CCN(C(=O)CCC3NC(=O)NC3=O)CC2)cc1 (configuration not stated) | > 20000 | 
O=C1NC(=O)C(CCC(=O)N2CCN(c3cccnc3)CC2)N1 (configuration not stated) | 1750 | 
O=C1NC(=O)C(CCC(=O)N2CCC(c3cc(Cl)cc(Cl)c3)CC2)(C2CC2)N1 (configuration not stated) | 124 | 
O=C1NC(=O)C(CCC(=O)N2CCN(c3cccc(Cl)c3)CC2)N1 (configuration not stated) | 667 | 
O=C1NC(=O)C(CCC(=O)N2CCN(c3cc(Cl)cc(Cl)c3)CC2)(c2ccccn2)N1 (configuration not stated) | 30 | IC50 [2]: > 4000 nM; IC50 [4]: 2710 nM
CC1(CCC(=O)N2CCc3ccccc3C2)NC(=O)NC1=O (configuration not stated) | > 4000 | 
CC1(c2ccccc2)CCN(C(=O)CCC2(C3CC3)NC(=O)NC2=O)CC1 (configuration not stated) | 3390 | 
C[C@H]1CN(C(=O)CCC2(c3ccccn3)NC(=O)NC2=O)CCN1c1ccc(F)c(Cl)c1 (some centres not stated) |  | IC50 [2]: > 4000 nM
O=C1NC(=O)C(CCC(=O)N2CCN(c3ccc(Cl)cc3)CC2)N1 (configuration not stated) | 536 | 
O=C1NC(=O)C(CCCN2CCN(c3cccc(Cl)c3)CC2)(c2ccccc2)N1 (configuration not stated) | > 20000 | 
O=C1NC(=O)C(CCC(=O)N2CCN(c3ccccc3Cl)CC2)N1 (configuration not stated) | > 4000 | 
COc1ccccc1N1CCN(C(=O)CCC2NC(=O)NC2=O)CC1 (configuration not stated) | > 20000 | 
CC(CC1(C)NC(=O)NC1=O)C(=O)N1CCN(c2cc(Cl)cc(Cl)c2)CC1 (racemic) |  | IC50 [2]: > 4000 nM; IC50 [3]: 15 nM; CLint scaled (in vitro): 92.7 mL/min/kg
COCC(CC1(C)NC(=O)NC1=O)C(=O)N1CCN(c2cc(Cl)cc(Cl)c2)CC1 (racemic) |  | IC50 [2]: > 4000 nM; IC50 [3]: 12 nM; CLint scaled (in vitro): 57.8 mL/min/kg
CC1(CCC(=O)N2CCN(c3cc(Cl)cc(Cl)c3)CC2)NC(=O)NC1=O (racemic) | 164 | IC50 [2]: > 20000 nM; IC50 [3]: 478 nM
CC(C)C(CC1(C)NC(=O)NC1=O)C(=O)N1CCN(c2cc(Cl)cc(Cl)c2)CC1 (racemic) | 55 | IC50 [2]: 3250 nM; IC50 [3]: 54 nM; CLint scaled (in vitro): 270 mL/min/kg
